Measurements as given in publication PMC3783409, “Enzymatic Synthesis of RNAs Capped with Nucleotide Analogues Reveals the Molecular Basis for Substrate Selectivity of RNA Capping Enzyme: Impacts on RNA Metabolism” (PLoS ONE, 2013).
pIC50: −log10 of the molar value. Where two headings read alike, the source gives them in different places.

How the values were obtained:
PBCV-1 GTase [1] = biological target: T1, PBCV-1 GTase (Paramecium bursaria Chlorella virus 1, UniProt Q84424); test: Formation of the covalent enzyme-nucleotide intermediate (SDS-PAGE, Coomassie blue); type: biochemical; design: His-tag; made in house; conditions: nucleotide analogue 2 mM, magnesium ions 5 mM
T1 sequence (Q84424 whole entry): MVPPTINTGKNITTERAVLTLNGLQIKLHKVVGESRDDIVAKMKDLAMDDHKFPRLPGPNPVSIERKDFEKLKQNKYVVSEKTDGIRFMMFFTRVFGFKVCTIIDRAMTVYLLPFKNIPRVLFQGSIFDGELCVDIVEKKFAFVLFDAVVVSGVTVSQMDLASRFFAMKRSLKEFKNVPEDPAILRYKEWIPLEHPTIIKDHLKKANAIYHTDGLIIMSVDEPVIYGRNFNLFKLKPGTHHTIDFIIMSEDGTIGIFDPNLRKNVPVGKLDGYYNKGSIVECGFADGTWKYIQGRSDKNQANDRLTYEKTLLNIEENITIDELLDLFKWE
Procedure: The standard first step reaction was carried out in the presence of each nucleotide analogue (2 mM) in the presence or absence of potassium pyrophosphate (1 mM). The reactions were resolved on SDS-PAGE followed by Coomassie blue staining.

PBCV-1 GTase [2] = biological target: T1, PBCV-1 GTase; test: Inhibition of the first step of the GTase reaction (E-GMP formation); type: biochemical; design: His-tag; made in house; conditions: for Effect on radiolabelled EpG signal: unlabelled nucleotide 2 mM, GTase 10 µM
Procedure: Inhibition of the first step of the GTase reaction was evaluated by carrying out the standard first step GTase reaction in the presence of 0.2 pmol of [α-^32P] GTP and 2 mM of either unlabelled GTP or each unlabelled nucleotide analogue separately. The IC50 of nucleotide analogues was determined by carrying out the standard first step reaction in the presence of 0.2 pmol of [α-^32P] GTP and increasing concentrations of up to 2 mM of each nucleotide analogue. The reactions were stopped by the addition of EDTA to 10 mM and SDS to 1% and analyzed by electrophoresis through a 12.5% polyacrylamide gel containing 0.1% SDS. The radiolabelled proteins were visualized by autoradiography of the gel. Radiolabelled covalent complex formation was quantified by scanning the gel with a PhosphorImager (Amersham Biosciences).

PBCV-1 GTase [3] = biological target: T1, PBCV-1 GTase; test: In vitro RNA capping efficiency (nuclease P1 / alkaline phosphatase digestion, TLC); conditions: for Relative efficiency of RNA capping, 1st and 2nd steps: nucleotide 2 mM, normalized onto the value obtained with GTP
PBCV-1 GTase [4] = biological target: T1, PBCV-1 GTase; test: Transfer of nucleotide analogues onto internally labelled 50 nt RNA (Urea-PAGE); conditions: 32P-internally labelled RNA
eIF4E protein = biological target: T2, eIF4E protein (Mus musculus, UniProt P63073); test: Binding of free NTP to purified eIF4E (fluorescence saturation isotherm); design: species or system murine; conditions: 2 µM protein, pH 8.0
T2 construct: His-tag; made in house; host or cells: bacteria
T2 sequence (P63073 whole entry): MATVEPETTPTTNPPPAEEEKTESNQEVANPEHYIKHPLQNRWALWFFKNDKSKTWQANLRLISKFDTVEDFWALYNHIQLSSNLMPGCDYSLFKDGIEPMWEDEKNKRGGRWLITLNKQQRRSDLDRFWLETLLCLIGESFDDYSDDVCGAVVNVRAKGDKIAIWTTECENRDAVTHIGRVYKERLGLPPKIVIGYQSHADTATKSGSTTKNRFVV
Procedure: The binding of RNAs harboring modified RNA cap structures to the eIF4E protein was evaluated by fluorescence spectroscopy as described previously [23]. Briefly, excitation was performed at a wavelength of 290 nm fluorescence using a Hitachi F-2500 fluorescence spectrophotometer. Background emission was eliminated by subtracting the signal from the buffer containing the RNA substrate. The extent to which the RNA binds to purified eIF4E protein was determined by monitoring the fluorescence emission of a fixed concentration of proteins with and without the appropriate RNA (2 µM).
(B) Increasing amounts of NTP were added to a 2 µM solution of the purified protein in a binding buffer (50 mM Tris/HCl, pH 8.0, and 50 mM KOAc) and following excitation of tryptophan residues at 290 nm the emission spectrum was scanned from 310 to 440 nm. […] The data was fit to a binding curve.

[5] = read-out: IC50 for E-GMP formation, 1st step, 0.2 pmol [α-32P] GTP, PBCV-1 GTase 10 µM, analogue up to 2 mM, pH 7.5, 1hr at 30°C

Cn1c(N)nc2c(ncn2[C@@H]2O[C@H](COP(=O)(O)OP(=O)(O)OP(=O)(O)O)[C@@H](O)[C@H]2O)c1=O [A1, N1-Me GTP]
Covalent intermediate: slower migrating species on SDS-PAGE (PBCV-1 GTase [1]): appearance of a slower migrating species | pIC50 (PBCV-1 GTase [2]; [5]): 4.10 | Relative efficiency of RNA capping, 1st and 2nd steps (PBCV-1 GTase [3]): 1.1

O=c1[nH]cnc2c1ncn2[C@@H]1O[C@H](COP(=O)(O)OP(=O)(O)OP(=O)(O)O)[C@@H](O)[C@H]1O [A2, ITP]
Covalent intermediate: slower migrating species on SDS-PAGE (PBCV-1 GTase [1]): appearance of a slower migrating species | Formation of capped RNA (slower migrating species) (PBCV-1 GTase [4]): formation of a slower migrating species corresponding to the capped RNA | pIC50 (PBCV-1 GTase [2]; [5]): 3.47 | Relative efficiency of RNA capping, 1st and 2nd steps (PBCV-1 GTase [3]): 1.3

Nc1nc(N)c2ncn([C@@H]3O[C@H](COP(=O)(O)OP(=O)(O)OP(=O)(O)O)[C@@H](O)[C@H]3O)c2n1 [A4, 2-Amino ATP]
pIC50 (PBCV-1 GTase [2]; [5]): < 2.70

Nc1nc(Cl)c2ncn([C@@H]3O[C@H](COP(=O)(O)OP(=O)(O)OP(=O)(O)O)[C@@H](O)[C@H]3O)c2n1 [A5, 2-Amino-6 Cl purine RTP]
pIC50 (PBCV-1 GTase [2]; [5]): 3.80 | Relative efficiency of RNA capping, 1st and 2nd steps (PBCV-1 GTase [3]): 0.08 | RNA capping (transfer onto RNA) relative to GTP (PBCV-1 GTase [3]): 8%

COc1nc(N)nc2c1ncn2[C@@H]1O[C@H](COP(=O)(O)OP(=O)(O)OP(=O)(O)O)[C@@H](O)[C@H]1O [A7, O6-Me GTP]
pIC50 (PBCV-1 GTase [2]; [5]): 3.82 | Relative efficiency of RNA capping, 1st and 2nd steps (PBCV-1 GTase [3]): 0.48 | RNA capping (transfer onto RNA) relative to GTP (PBCV-1 GTase [3]): ~ 50%

CSc1nc(N)nc2c1ncn2[C@@H]1O[C@H](COP(=O)(O)OP(=O)(O)OP(=O)(O)O)[C@@H](O)[C@H]1O [A8, 6-Me thio GTP]
pIC50 (PBCV-1 GTase [2]; [5]): 3.37 | Relative efficiency of RNA capping, 1st and 2nd steps (PBCV-1 GTase [3]): 0.07

CSc1ncnc2c1ncn2[C@@H]1O[C@H](COP(=O)(O)OP(=O)(O)OP(=O)(O)O)[C@@H](O)[C@H]1O [A10, 6-Me thio ITP]
pIC50 (PBCV-1 GTase [2]; [5]): 2.92 | Transferability of covalent intermediate onto RNA (PBCV-1 GTase [3]; 5’-α terminally labelled RNA, TLC): clearly not transferable onto RNA

O=P(O)(O)OP(=O)(O)OP(=O)(O)OC[C@H]1O[C@@H](n2cnc3c(Cl)ncnc32)[C@H](O)[C@@H]1O [A11, 6-Cl purine RTP]
pIC50 (PBCV-1 GTase [2]; [5]): < 2.70

Nc1nc2c(nc(Br)n2[C@@H]2O[C@H](COP(=O)(O)OP(=O)(O)OP(=O)(O)O)[C@@H](O)[C@H]2O)c(=O)[nH]1 [A13, 8-Bromo GTP]
pIC50 (PBCV-1 GTase [2]; [5]): 2.82 | Relative efficiency of RNA capping, 1st and 2nd steps (PBCV-1 GTase [3]): 0.40

Nc1nc2c(nc(I)n2[C@@H]2O[C@H](COP(=O)(O)OP(=O)(O)OP(=O)(O)O)[C@@H](O)[C@H]2O)c(=O)[nH]1 [A14, 8-Iodo GTP]
pIC50 (PBCV-1 GTase [2]; [5]): 3.38 | Relative efficiency of RNA capping, 1st and 2nd steps (PBCV-1 GTase [3]): 1.0

Nc1nc2c(ccn2[C@@H]2O[C@H](COP(=O)(O)OP(=O)(O)OP(=O)(O)O)[C@@H](O)[C@H]2O)c(=O)[nH]1 [A16, 7-deaza GTP]
pIC50 (PBCV-1 GTase [2]; [5]): < 2.70

Nc1ncnc2c1ncn2[C@@H]1O[C@H](COP(=O)(O)OP(=O)(O)OP(=O)(O)O)[C@@H](O)[C@H]1O [ATP, reference compound]
Formation of capped RNA (slower migrating species) (PBCV-1 GTase [4]): no effect | pIC50 (PBCV-1 GTase [2]; 0.2 pmol [α-32P] GTP, PBCV-1 GTase 10 µM, analogue up to 2 mM, pH 7.5, 1hr at 30°C, read-out: IC50 for E-GMP formation, 1st step): < 2.70 | Effect on radiolabelled EpG signal (PBCV-1 GTase [2]): no apparent effect

Nc1nc2c(ncn2[C@@H]2O[C@H](COP(=O)(O)OP(=O)(O)OP(=O)(O)O)[C@@H](O)[C@H]2O)c(=O)[nH]1 [GTP, reference compound]
Formation of capped RNA (slower migrating species) (PBCV-1 GTase [4]): formation of a slower migrating species corresponding to the capped RNA | pIC50 (PBCV-1 GTase [2]): 4.00 | Effect on radiolabelled EpG signal (PBCV-1 GTase [2]): maximum loss of the radiolabelled EpG signal | Fraction of capped RNA over the total transcripts (PBCV-1 GTase [3]; cap donor 2 mM): 0.35 ±0.05 | Relative efficiency of RNA capping, 1st and 2nd steps (PBCV-1 GTase [3]): 1.0 | Kd for purified eIF4E (eIF4E protein): much higher apparent binding constant
